The text below walks through data of US20250051686A1, “SURFACTANTS FOR CLEANING PRODUCTS” (AdvanSix Resins & Chemicals LLC, priority 2023, published 2025).

Test in all cases: Antimicrobial minimum inhibitory concentration (MIC), serial dilution
Assay [1] relates to P. aeruginosa (9027). Type of assay: cell-based, Pseudomonas aeruginosa. The settings on record: 24 hours; serial dilution 1.7 fold; 400 ppm max. From the text: (§1) The antimicrobial properties of surfactants can be examined using known methods and standard protocols, and various types of microorganisms as treatment targets. As a general matter, standard protocols can be developed to assess antimicrobial minimum inhibitory concentration (MIC) using serial dilution method, giving concentration-dependent microorganism growth inhibition measurements against gram positive (e.g., Streptococcus mutans, which is anaerobic, and Staphylococcus aureus, which is usually aerobic but can grow also anaerobically), gram negative (e.g., Escherichia coli, which is anaerobic, or Pseudomonas aeruginosa, which is aerobic). Bacteria are propagated overnight in a suitable growth medium, e.g., a Tryptic Soy Broth. Prior to testing, the concentrations of the test organisms are established using a spectrophotometer that can measure optical density. Those bacterial samples are then diluted to about 1E3 to 1E4 CFU/mL. […] Test measurements are conducted on replicate 96-well plates, and reported as the rounded whole number average of the determined MIC. […] Measurement variability is then reported based on the determined average in the form of MIC+/−.

Assay [2] has as its system S. aureus (6538). Format: cell-based, Staphylococcus aureus. The settings on record: 24 hours; serial dilution 1.7 fold; 400 ppm max (ADBAC control 20 ppm max).
From the text: as §1

Assay [3] concerns E. coli (8739). Type of assay: cell-based, Escherichia coli. The following applies: 24 hours; serial dilution 1.7 fold; 400 ppm max (ADBAC control 20 ppm max).
From the text: as §1

The subject of assay [4] is S. mutans (25715). Format: cell-based, Streptococcus mutans. The following applies: 24 hours; serial dilution 1.7 fold; 400 ppm max (ADBAC control 20 ppm max).
From the text: as §1

As for `CCCCCCCCCCCCCC[N+](C)(C)Cc1ccccc1.[Cl-]` [ADBAC control], the “MIC Result” value in assay [1] is 48 +/− 20 ppm; in assay [2] it was 7 +/− 3 ppm; in assay [3] it was 16 +/− 7 ppm; in assay [4], 7 +/− 3 ppm.
